Data published in the NIST ThermoML archive (doi:10.1021/acs.jced.8b00132).
“And” between values parts separate entries of the source, which are not always exact repeats. Identical values can stand only once.

O=C(C(F)(F)C(F)(F)F)C(F)(C(F)(F)F)C(F)(F)F [dodecafluoro-2-methylpentan-3-one]
Details	thermal conductivity
300.81 K, 35 kPa, Gas, hot wire	0.0117 W/m/K and 0.01167 W/m/K
300.82 K, 27 kPa, Gas, hot wire	0.01167 W/m/K
301.02 K, 35 kPa, Gas, hot wire	0.01175 W/m/K and 0.01169 W/m/K
301.02 K, 40 kPa, Gas, hot wire	0.01176 W/m/K and 0.01171 W/m/K
301.04 K, 26 kPa, Gas, hot wire	0.01169 W/m/K
301.04 K, 27 kPa, Gas, hot wire	0.01166 W/m/K
301.12 K, 68548 kPa, Liquid, transient hot wire	0.07848 W/m/K
301.12 K, 68619 kPa, Liquid, transient hot wire	0.07853 W/m/K
301.16 K, 59412 kPa, Liquid, transient hot wire	0.07633 W/m/K
301.16 K, 59421 kPa, Liquid, transient hot wire	0.07635 W/m/K
301.2 K, 15856 kPa, Liquid, transient hot wire	0.06469 W/m/K
301.2 K, 15861 kPa, Liquid, transient hot wire	0.06419 W/m/K
301.2 K, 48052 kPa, Liquid, transient hot wire	0.07348 W/m/K
301.21 K, 48059 kPa, Liquid, transient hot wire	0.07348 W/m/K
301.23 K, 38563 kPa, Liquid, transient hot wire	0.07045 W/m/K
301.23 K, 38570 kPa, Liquid, transient hot wire	0.07088 W/m/K
301.25 K, 35 kPa, Gas, hot wire	0.01177 W/m/K and 0.01172 W/m/K
301.25 K, 40 kPa, Gas, hot wire	0.01175 W/m/K and 0.01177 W/m/K
301.26 K, 29951 kPa, Liquid, transient hot wire	0.06831 W/m/K
301.26 K, 29959 kPa, Liquid, transient hot wire	0.06831 W/m/K
301.27 K, 26 kPa, Gas, hot wire	0.0117 W/m/K
301.27 K, 27 kPa, Gas, hot wire	0.01169 W/m/K
301.27 K, 22365 kPa, Liquid, transient hot wire	0.06588 W/m/K
301.27 K, 22366 kPa, Liquid, transient hot wire	0.06588 W/m/K
301.29 K, 68411 kPa, Liquid, transient hot wire	0.07844 W/m/K
301.3 K, 68477 kPa, Liquid, transient hot wire	0.07847 W/m/K
301.31 K, 15646 kPa, Liquid, transient hot wire	0.06353 W/m/K
301.32 K, 15647 kPa, Liquid, transient hot wire	0.06353 W/m/K
301.32 K, 15982 kPa, Liquid, transient hot wire	0.06426 W/m/K
301.32 K, 68614 kPa, Liquid, transient hot wire	0.07896 W/m/K
301.33 K, 15978 kPa, Liquid, transient hot wire	0.06437 W/m/K
301.33 K, 58469 kPa, Liquid, transient hot wire	0.07677 W/m/K
301.33 K, 68621 kPa, Liquid, transient hot wire	0.07913 W/m/K
301.34 K, 29983 kPa, Liquid, transient hot wire	0.06887 W/m/K
301.34 K, 38644 kPa, Liquid, transient hot wire	0.07116 W/m/K
301.34 K, 38645 kPa, Liquid, transient hot wire	0.07082 W/m/K
301.34 K, 48192 kPa, Liquid, transient hot wire	0.07381 W/m/K
301.34 K, 48193 kPa, Liquid, transient hot wire	0.07385 W/m/K
301.34 K, 58483 kPa, Liquid, transient hot wire	0.07689 W/m/K
301.35 K, 9734 kPa, Liquid, transient hot wire	0.06181 W/m/K
301.35 K, 9737 kPa, Liquid, transient hot wire	0.06163 W/m/K
301.35 K, 29988 kPa, Liquid, transient hot wire	0.06876 W/m/K
301.35 K, 59394 kPa, Liquid, transient hot wire	0.07632 W/m/K
301.35 K, 59405 kPa, Liquid, transient hot wire	0.07636 W/m/K
301.36 K, 186 kPa, Liquid, transient hot wire	0.05707 W/m/K
301.36 K, 22446 kPa, Liquid, transient hot wire	0.0654 W/m/K
301.37 K, 186 kPa, Liquid, transient hot wire	0.05699 W/m/K
301.37 K, 4437 kPa, Liquid, transient hot wire	0.05962 W/m/K
301.37 K, 4442 kPa, Liquid, transient hot wire	0.05915 W/m/K
301.37 K, 22450 kPa, Liquid, transient hot wire	0.06542 W/m/K
301.38 K, 9940 kPa, Liquid, transient hot wire	0.06178 W/m/K
301.39 K, 94 kPa, Liquid, transient hot wire	0.05683 W/m/K
301.39 K, 100 kPa, Liquid, transient hot wire	0.05659 W/m/K
301.39 K, 9943 kPa, Liquid, transient hot wire	0.06137 W/m/K
301.39 K, 68810 kPa, Liquid, transient hot wire	0.07913 W/m/K
301.39 K, 68825 kPa, Liquid, transient hot wire	0.07893 W/m/K
301.4 K, 48039 kPa, Liquid, transient hot wire	0.0735 W/m/K
301.4 K, 48041 kPa, Liquid, transient hot wire	0.07342 W/m/K
301.41 K, 182 kPa, Liquid, transient hot wire	0.057 W/m/K
301.42 K, 181 kPa, Liquid, transient hot wire	0.05699 W/m/K
301.43 K, 4512 kPa, Liquid, transient hot wire	0.0591 W/m/K
301.43 K, 4517 kPa, Liquid, transient hot wire	0.05911 W/m/K
301.43 K, 38558 kPa, Liquid, transient hot wire	0.0709 W/m/K
301.44 K, 38562 kPa, Liquid, transient hot wire	0.07087 W/m/K
301.46 K, 29951 kPa, Liquid, transient hot wire	0.06828 W/m/K
301.47 K, 29958 kPa, Liquid, transient hot wire	0.0683 W/m/K
301.48 K, 22365 kPa, Liquid, transient hot wire	0.06549 W/m/K
301.49 K, 22364 kPa, Liquid, transient hot wire	0.06585 W/m/K
301.49 K, 68338 kPa, Liquid, transient hot wire	0.07849 W/m/K
301.5 K, 35 kPa, Gas, hot wire	0.01174 W/m/K
301.5 K, 40 kPa, Gas, hot wire	0.01178 W/m/K
301.5 K, 41 kPa, Gas, hot wire	0.01177 W/m/K
301.5 K, 68274 kPa, Liquid, transient hot wire	0.07839 W/m/K
301.51 K, 35 kPa, Gas, hot wire	0.01178 W/m/K
301.52 K, 27 kPa, Gas, hot wire	0.01171 W/m/K
301.53 K, 27 kPa, Gas, hot wire	0.0117 W/m/K
301.54 K, 121 kPa, Liquid, transient hot wire	0.05731 W/m/K and 0.05707 W/m/K
301.54 K, 15641 kPa, Liquid, transient hot wire	0.06381 W/m/K
301.54 K, 15643 kPa, Liquid, transient hot wire	0.06352 W/m/K
301.54 K, 59383 kPa, Liquid, transient hot wire	0.07629 W/m/K
301.54 K, 59392 kPa, Liquid, transient hot wire	0.07615 W/m/K
301.56 K, 34 kPa, Gas, transient hot wire	0.01199 W/m/K
301.57 K, 34 kPa, Gas, transient hot wire	0.01211 W/m/K
301.59 K, 15866 kPa, Liquid, transient hot wire	0.06262 W/m/K
